Measured values taken from patent US8329685B1, “Enhancement of the action of anti-infective agents and of central and peripheral nervous system agents and transportation of nucleic acid substances” (priority 2001, dated 2012).

Tested on: M.Tb. drug resistant strain TV25
Format: cell-based, Mycobacterium tuberculosis

NNC(=O)c1ccncc1 [INH, Isoniazid]
additional effectiveness of INH in the presence of MZL: 41.5% | effect of INH alone (without MZL): no effect
